Reference: paper PMC6941357, “An in vitro toolbox to accelerate anti-malarial drug discovery and development” (Malaria Journal, 2020)
“And” between values parts separate entries of the source, which are not always exact repeats. Equal entries are not always repeated. Where two headings read alike, the source gives them in different places. Marks after values point to notes of the source that are not given here.

Tests used:
human plasma [1] = test: Plasma protein binding via ultracentrifugation (UC); format: in vitro ADME; conditions: ultracentrifugation, neat plasma
Procedure, shortened: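 Pooled human plasma (3–4 donors) spiked and ultracentrifuged; protein-free supernate gave Cunbound, parallel tubes kept at 37 °C gave Ctotal and stability (start vs end). Samples matrix-matched 1:1 with opposite blank and quantified against a common calibration curve; fu SD by error propagation.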

human plasma [2] = test: Plasma protein binding via rapid equilibrium dialysis (RED), 10% plasma; format: in vitro ADME; conditions: RED, 10% plasma corrected for dilution
Protocol: (§1) Pooled human plasma (n = 3–4 donors) was obtained by centrifugation of blood (collected by the Australian Red Cross Blood Service, Melbourne, Australia or the Volunteer Blood Donor Registry, Clinical Translation Centre, Walter & Eliza Hall Institute of Medical Research, Parkville, Australia), or sourcing pooled plasma directly from commercial sources (Innovative Research Inc, MI) and stored frozen at − 80 °C.
(§2) Plasma was diluted 1:10 with pH 7.4 phosphate buffer (prepared by mixing 0.1 M sodium dihydrogen phosphate and 0.1 M disodium hydrogen phosphate (both containing 0.04 M NaCl) to pH 7.4) and spiked with compound to achieve a total measured concentration of ~ 1000–3000 ng/mL. Diluted plasma was vortex mixed briefly and aliquots (n = 3–4) were transferred to RED (Thermo Fisher Scientific, Waltham, MA) units that were placed at 37 °C under ambient atmosphere on a plate shaker. […] At the end of the dialysis period, samples were removed from both the donor and dialysate chambers of the RED units. […] Fraction unbound values were calculated for each individual RED unit and the mean and SD calculated for n = 3–4 replicates.
(§3) Briefly, the RED device was exposed for two 30 min periods and one overnight period to fresh solutions of compound prepared in pH 7.4 buffer at approximately 10% of the total dialysis concentration. Following the preincubations, solutions were removed from the RED device and discarded. […] Samples were removed and analysed as described above.
(§4) For binding assessments using 10% plasma, the unbound fraction (fu) in neat plasma was calculated using the average values for Ctotal and Cunbound and Eq.

10% FCS in DMEM = test: Binding in DMEM with 10% FCS via ultracentrifugation; format: in vitro ADME, calf
Protocol: (§5) Dulbecco’s Modified Eagle’s Medium (DMEM) containing GlutaMAX-I was purchased from Invitrogen (Thermo Fisher Scientific) and stored at 4 °C. Medium was prepared by adding heat inactivated foetal calf serum (FCS, final 10% v/v), penicillin (final 100 U/mL), streptomycin (final 100 µg/mL) D-glucose (final 4.0 mg/mL) and sodium pyruvate (final 0.1 mg/mL).
(§6) An ultracentrifugation method adapted from a previous publication was initially used to assess plasma protein binding and binding in the other media. […] Additional ultracentrifuge tubes containing spiked matrix were maintained at 37 °C, 5% or 10% CO2 or normal atmosphere conditions, with aliquots being taken within 0.5 h of the start and at the end of ultracentrifugation to serve as controls for the assessment of stability and to obtain a measure of the total concentration (Ctotal). Following ultracentrifugation, the pH was checked and an aliquot of protein-free supernate was taken from each ultracentrifuge tube for determination of the unbound concentration (Cunbound).
(§7) Total matrix and protein free samples were analysed using a matrix matching approach whereby each sample was mixed in a 1:1 ratio with the opposite blank medium (i.e. blank total matrix or blank protein free buffer). For example, plasma samples were mixed with blank pH 7.4 buffer whereas plasma supernatant samples were mixed with blank plasma. Each of the sample sets were then assayed against a common calibration curve prepared in a 1:1 mixture of total matrix and protein free pH 7.4 buffer. […] The standard deviation for fu was calculated using the propagation of errors approach as described previously. The potential for compound degradation was assessed by comparing the average value for Ctotal at the start and end of the experiment.

human liver microsomes = test: Binding to human liver microsomes via ultracentrifugation; format: in vitro ADME; conditions: 0.4 mg/mL protein
Procedure, shortened: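 Unbound fraction by ultracentrifugation: Cunbound measured in protein-free supernate, Ctotal from spiked tubes held at 37 °C, sampled at start and end to check degradation. Matrix was 0.4 mg/mL human liver microsomal protein, 0.1 M phosphate pH 7.4; matrix-matched analysis against one calibration curve.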

[3] = Blood to plasma partitioning; format: in vitro ADME, human; conditions: 37 °C; for B/P (whole blood to plasma partitioning ratio): human whole blood
Protocol: Human whole blood was collected and supplied by the Volunteer Blood Donor Registry (Clinical Translation Centre, Walter & Eliza Hall Institute of Medical Research, Parkville, Australia) and used on the day of collection. The haematocrit (Hct) was determined by centrifugation (13,000×g for 3 min using Clemets® Microhaematocrit centrifuge and Safecap® Plain Self-sealing Mylar wrapped capillary tubes) to ensure it was between 0.40 and 0.48. An aliquot was centrifuged (Heraeus, Multifuge 3 S-R; 4500×g) for 10 min to obtain plasma required for matrix matching purposes as described below.
Two aliquots of the spiked whole blood were transferred to fresh microcentrifuge tubes and maintained at 37 °C/5% CO2 in a humidified incubator. The pH was confirmed to be 7.4 ± 0.1 at the start and end of the incubation. At each time point (30 min and 4 h), one whole blood tube was removed from the incubator and mixed by gentle inversion, after which four replicate blood samples were taken and matrix matched with an equal volume of blank plasma. The remainder of the blood sample was centrifuged (Eppendorf, Mini Spin plus; 6700×g) for 2 min for the collection of 4 replicate plasma samples which were similarly matrix matched with an equal volume of blank whole blood. The 1:1 mixtures of blood/plasma were mixed, snap frozen in dry ice and stored at − 80 °C until analysis by LC–MS (Additional file 1: Table S2) against calibration standards prepared in the same mixed matrix. Any further distribution of compound into RBCs at this stage was irrelevant as the cells were lysed during the sample preparation and the total concentration in the mixed matrix was measured for both the calibration standards and samples.
The apparent whole blood-to-plasma partitioning ratio (B/P) was calculated as the ratio of the average concentration in the blood sample to that in the plasma fraction of the same whole blood sample. A standard deviation (SD) for each B/P value was calculated using the propagation of errors approach as described previously.

[4] = Ionization constants by potentiometric titration; format: physicochemical; conditions: mean ± SD, n = 3 titrations
Protocol: The autotitrator was controlled by Tiamo software (Version 1.3). pH measurements were conducted using a Metrohm LL Micro glass electrode which was calibrated on the day of use with calibration standards at pH 2, 4, 7 and 10. All reagents were standardized (directly or indirectly) against potassium hydrogen phthalate (Sigma-Aldrich, A.C.S. Acidimetric Standard). Titrant solutions were protected from carbon dioxide absorption by flushing with nitrogen before sealing or by the incorporation of a drying tube filled with self-indicating soda lime into the titration reaction vessel set-up.
Aliquots were introduced directly into the titration vessel and diluted 1:10 with water (typical final compound concentration of 0.5 mM).

[5] = Plasma protein binding via rapid equilibrium dialysis (RED), 10% plasma; format: in vitro ADME, human; conditions: human, 10% pooled plasma (diluted 1:10), pH 7.4, RED, 10% plasma corrected for dilution; for fraction unbound at 6 h: 6 h dialysis; for fraction unbound at 24 h: presaturation of device and 24 h dialysis
Protocol: as §1, §2, §3, §4

[6] = Binding in DMEM with 10% FCS via ultracentrifugation; format: in vitro ADME, calf; conditions: bovine, DMEM with 10% FCS, pH 7.4
Protocol: as §5, §6, §7

Caco-2 cell monolayers = conditions: cited from earlier work
CYP3A4 = CYP3A4 (Homo sapiens, UniProt P08684); design: from tissue; host or cells: human liver microsomes; conditions: human liver microsomes, cited from earlier work
CYP3A4, sequence (P08684 whole entry): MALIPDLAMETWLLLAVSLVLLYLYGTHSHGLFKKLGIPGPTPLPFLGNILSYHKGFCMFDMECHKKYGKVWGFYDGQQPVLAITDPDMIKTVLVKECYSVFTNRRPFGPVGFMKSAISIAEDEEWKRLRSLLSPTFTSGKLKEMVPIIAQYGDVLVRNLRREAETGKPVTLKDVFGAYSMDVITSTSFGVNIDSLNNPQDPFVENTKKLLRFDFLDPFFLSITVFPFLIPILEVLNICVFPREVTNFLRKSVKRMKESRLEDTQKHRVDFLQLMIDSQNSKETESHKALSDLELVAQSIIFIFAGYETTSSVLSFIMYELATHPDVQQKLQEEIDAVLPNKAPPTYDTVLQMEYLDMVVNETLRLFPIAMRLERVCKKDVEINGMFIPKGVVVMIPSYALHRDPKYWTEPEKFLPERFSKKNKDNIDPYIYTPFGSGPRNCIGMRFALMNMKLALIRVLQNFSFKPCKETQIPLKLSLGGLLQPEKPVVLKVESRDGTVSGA

[7] = presaturation of device and 24 h dialysis
[8] = matrix: human plasma, corrected for fu
[9] = CYP3A4 (test), read-out: CYP3A4 (test) IC50

SMILES: COc1cc2[nH]c(C)c(-c3ccc(Oc4ccc(OC(F)(F)F)cc4)cc3)c(=O)c2cc1Cl [ELQ300]
- Fraction unbound, human plasma (human plasma [1]): 0.011 (0.0020)
- Fraction unbound, human plasma (human plasma [2]; 6 h dialysis): < 0.0001
- Fraction unbound, human plasma (human plasma [2]; [7]): 0.00010 ± 0.000010^c
- Fraction unbound, 10% FCS in DMEM (10% FCS in DMEM): 0.001 ± 0.001
- Fraction unbound, HLM (human liver microsomes): 0.002 ± 0.00010
- B/P (whole blood to plasma partitioning ratio) [3]: 0.53 ± 0.05

SMILES: COc1cc(C)c2c(Oc3cccc(C(F)(F)F)c3)c(OC)cc(NC(C)CCCN)c2n1 (stereo not shown) [Tafenoquine]
- pKa ([4]; aqueous solution (DMSO stock diluted 1:10 with water), basic pKa (B), read-out: Measured pKa): 8.7 ± 0.09
- fraction unbound at 6 h [5]: < 0.0007
- fraction unbound at 24 h [5]: 0.0007 ± 0.00017
- fraction unbound at […], 1000 ng/mL [6]: 0.038 ± 0.001
- blood plasma ratio at 1000 ng/mL ([3]; human, whole blood, pH 7.4, human whole blood, read-out: B/P (whole blood to plasma partitioning ratio)): 1.3 ± 0.04

SMILES: CC(C)(C)NCc1cc(C(C)(C)C)cc(-c2cnc(C(F)(F)F)c(F)c2)c1O [JPC3210]
- Measured pKa ([4]; acidic pKa (A)): 5.3 ± 0.04 (A)
- Fraction unbound, human plasma (human plasma [1]): 0.071
- Fraction unbound, human plasma (human plasma [2]; 6 h dialysis): 0.0011 (0.0002)
- Fraction unbound, 10% FCS in DMEM (10% FCS in DMEM): 0.227 ± 0.012
- Fraction unbound, HLM (human liver microsomes): 0.029 ± 0.0030
- B/P (whole blood to plasma partitioning ratio) [3]: 0.54 ± 0.04

SMILES: CC(C)(C)NCc1cc(Nc2ccnc3cc(Cl)ccc23)c2c(c1O)CCCC2 [Naphthoquine]
- Fraction unbound, human plasma (human plasma [1]): 0.030 (0.0020)
- Fraction unbound, human plasma (human plasma [2]; 6 h dialysis): 0.019 (0.0010)
- Fraction unbound, human plasma (human plasma [2]; [7]): 0.018 ± 0.0010^c
- Fraction unbound, HLM (human liver microsomes): 0.21 ± 0.015
- B/P (whole blood to plasma partitioning ratio) [3]: 1.14 ± 0.10
- Literature ER (Caco-2 cell monolayers; Caco-2, ref [33], [35] of Additional file 1): 0.8
- Literature Papp (Caco-2 cell monolayers; Caco-2 A-B, ref [33]–[35] of Additional file 1): 27.3 ± 0.6 10-6 cm/sec
- A–B Papp (Caco-2 cell monolayers; [8]): 230 ± 32 10^−6 cm/s
- B–A Papp (Caco-2 cell monolayers; [8]): 180 ± 10 10^−6 cm/s
- efflux ratio (Caco-2 cell monolayers; matrix: human plasma): 0.8 and 0.78

SMILES: CS(=O)(=O)O.FC1CCN(CCOc2ccc(C3CCC4(CC3)OOC3(OO4)C4CC5CC(C4)CC3C5)cc2)CC1 (stereo not shown) [TDD-E209]
- Fraction unbound, human plasma (human plasma [1]): 0.094 (0.011)
- Fraction unbound, human plasma (human plasma [2]; 6 h dialysis): < 0.0001
- Fraction unbound, human plasma (human plasma [2]; [7]): < 0.0001^c
- Fraction unbound, HLM (human liver microsomes): 0.0003 ± 0.000010
- B/P (whole blood to plasma partitioning ratio) [3]: 0.51 ± 0.08
- CYP3A4 (midaz) % inhibition at max conc (CYP3A4; CYP3A4 (midaz)): 33%
- IC50 (CYP3A4; CYP3A4 (midaz), read-out: CYP3A4 (midaz) IC50): > 20 µM
- CYP3A4 (test) % inhibition at max conc (CYP3A4; CYP3A4 (test)): 43%
- IC50 (CYP3A4; [9]): > 20 µM

SMILES: CCc1nc(N)nc(N)c1OCCCOc1ccccc1CCC(=O)O.Cl [P218]
- Measured pKa ([4]; acidic pKa (A)): 4.9 ± 0.002
- Measured pKa ([4]; basic pKa (B)): 7.3 ± 0.003
- Fraction unbound, human plasma (human plasma [1]): 0.13 ± 0.013
- Fraction unbound, 10% FCS in DMEM (10% FCS in DMEM): 0.684 ± 0.017
- Fraction unbound, HLM (human liver microsomes): 0.88 ± 0.041
- B/P (whole blood to plasma partitioning ratio) [3]: 0.56 ± 0.03

SMILES: CN(C)C[c-]1cccc1CNc1ccnc2cc(Cl)ccc12.[Fe+2].c1cc[cH-]c1 (stereo not shown) [Ferroquine]
- Fraction unbound, human plasma (human plasma [1]): 0.070 (0.0080)
- Fraction unbound, human plasma (human plasma [2]; [7]): 0.041 ± 0.0010^c
- Fraction unbound, 10% FCS in DMEM (10% FCS in DMEM): 0.364 ± 0.026
- Fraction unbound, HLM (human liver microsomes): 0.27 ± 0.032
- B/P (whole blood to plasma partitioning ratio) [3]: 1.6 ± 0.15

SMILES: COc1cc(N[C@H](C)CCCN)c2nccc(C)c2c1Oc1ccc(Cl)c(Cl)c1 [NPC1161B]
- Fraction unbound, human plasma (human plasma [1]): 0.046 (0.0090)
- Fraction unbound, human plasma (human plasma [2]; 6 h dialysis): < 0.0003
- Fraction unbound, human plasma (human plasma [2]; [7]): 0.00074 ± 0.00016^c
- Fraction unbound, 10% FCS in DMEM (10% FCS in DMEM): 0.043 ± 0.004
- B/P (whole blood to plasma partitioning ratio) [3]: 1.09 ± 0.07

SMILES: Cc1cc(Nc2ccc(S(F)(F)(F)(F)F)cc2)n2nc(C(C)(F)F)nc2n1 [DSM265]
- Measured pKa ([4]; basic pKa (B)): no ionizations could be detected
- fraction unbound at 6 h [5]: 0.002
- fraction unbound at 24 h [5]: 0.0018 ± 0.0001
- fraction unbound at […], 1000 ng/mL [6]: 0.366 ± 0.041
- CYP3A4 (test) % inhibition at max conc (CYP3A4; CYP3A4 (test)): 34%
- IC50 (CYP3A4; [9]): > 20 µM

SMILES: CCN(CC)CCCNc1ccnc2cc(Cl)ccc12.Cl.Cl [AQ-13]
- Measured pKa ([4]; basic pKa (B)): 7.6 ± 0.2 (B)
- Fraction unbound, human plasma (human plasma [1]): 0.43 ± 0.022
- Fraction unbound, HLM (human liver microsomes): 0.66 ± 0.048
- B/P (whole blood to plasma partitioning ratio) [3]: 3.15 ± 0.20

SMILES: O=C(NCCN1CCCC1)c1cc(-c2ccc(CN3CCOCC3)cc2)nc2ccc(F)cc12 [M5717]
- Fraction unbound, human plasma (human plasma [1]): 0.34 (0.021)
- Fraction unbound, human plasma (human plasma [2]; 6 h dialysis): 0.24 ± 0.0020^b
- Fraction unbound, 10% FCS in DMEM (10% FCS in DMEM): 0.638 ± 0.065
- Fraction unbound, HLM (human liver microsomes): 0.50 ± 0.041
- B/P (whole blood to plasma partitioning ratio) [3]: 1.3 ± 0.02
